Measurements taken from patent publication US9023998B2, “Near infrared fluorogen and fluorescent activating proteins for in vivo imaging and live-cell biosensing” (Carnegie Mellon University, priority 2013, dated 2015).

Columns and labels:
mL9.3 (SEQ. ID. NO. 20) = assay: Fluorogen activation by purified monomeric FAP mL9.3 (spectra); assay type: biochemical; conditions: purified protein, about 300 nM fluorogen, PBS pH 7.4
Source text: While the peptide linker that joins the VL units in dL9.2 (SEQ. ID. NO. 2) and dL9.5 (SEQ. ID. NO. 3) enhance fluorogen binding affinity and binding rate by reducing the entropic cost of assembly around the fluorogen, the linker is not strictly necessary for fluorogenic activation. […] In panels C and D, corresponding spectra from mL9.5:SKC602 (SEQ. ID. NO. 21:SKC602) and mL9.5:SKC728 (SEQ. ID. NO. 21:SKC728) fluoromodules are shown. Spectra were obtained using a Quantamaster™ fluorometer (PTI) equipped with dual monochromators on both excitation and emission light paths.
To facilitate ligase-dependent cloning methods, the above procedure was repeated for dL9.5 (SEQ. ID. NO. 6), using otherwise identical primers that appended BspEI (TCCGGA) (SEQ. ID. NO. 25) and BamHI (GGATCC) (SEQ. ID. NO. 26) sites directly at the 5′ and 3′ termini, respectively, of the dL9.5 gene (SEQ. ID. NO. 6). The resulting plasmid, designated pPNL9z-dL9.5, could be digested with BspEI (SEQ. ID. NO. 25) and BamHI (SEQ. ID. NO. 26) to produce a yeast expression vector backbone capable of receiving inserts with like-digested termini. […]

dL9.2 (SEQ. ID. NO. 2) = assay: Binding/activation of fluorogen by FAP dL9.2
Source text: A precursor FAP designated dL9 (SEQ. ID. NO. 1) was designed using the coding sequence of the light-chain from HL9-MG, a scFv originally isolated for binding and fluorescence activation of malachite green-based fluorogenic dyes (Szent-Gyorgyi, et al. 2008, incorporated herein by reference). This FAP was assembled as a tandem dimer of light chains by attaching a glycine-serine linker and a codon-optimized copy of the light chain gene to the original light chain via PCR. […] Mutagenesis and library generation by electroporation was performed in a previously described manner (Chao, et al., Isolating and engineering human antibodies using yeast surface display, Nature Protocols, vol. 1, No. 2, pp. 755-768 (2006)), but screening employed the protein secretion vector pPNL9, rather than the surface display vector pPNL6: Individual S. cerevisiae expressing FAP mutants were incubated with cell-permeant fluorogen MG-ester and the brightest activators were cloned via flow cytometry. Clones were induced for FAP production in tryptone-based protein secretion media (Szent-Gyorgyi, et al. 2008) and media was screened for activation of MG-ester after five days of induction at 20° C. This screen yielded dL9.2 (SEQ. ID. NO. 2): a bright, stable FAP amenable to high levels of expression. […]

| SMILES | Induction of NIR fluorescence by mL9.3 (mL9.3 (SEQ. ID. NO. 20)) | Binding and fluorescence activation by dL9.2 (dL9.2 (SEQ. ID. NO. 2)) |
| --- | --- | --- |
| CN(C)c1ccc(/C=C/C(=C2C=CC(=[N+](C)C)C=C2)c2ccc(N(C)C)cc2)cc1 [SKC602, (E)-N-(4-(1,3-bis(4-(dimethylamino)phenyl)allylidene)cyclohexa-2,5-dien-1-ylidene)-N-methylmethanaminium] | induces fluorescence | bind and activate fluorescence |
| CN(C)c1ccc(C(/C=C/c2ccc(N(C)CCCCC(=O)NC(CCS(=O)(=O)O)C(=O)O)cc2)=C2C=CC(=[N+](C)C)C=C2)cc1 (stereo not shown) [SKC728] | induces fluorescence | bind |
